Among the data in ChEMBL document CHEMBL3045927, “Synthesis of 4-methyl-1,2,3-thiadiazole derivatives via Ugi reaction and their biological activities” (2010) are Activity and inhibition values, retold here.

What all share (type): functional
One assay relates to Pyricularia grisea. The assay can be described thus: Fungicidal activity against Magnaporthe grisea at 50 ug/ml by growth inhibition method. More on the design: scale not given: the % may be the effect or the level left.
Another assay has as its system Thanatephorus cucumeris. The assay can be described thus: Fungicidal activity against Thanatephorus cucumeris at 50 ug/ml by growth inhibition method. More on the design: scale not given: the % may be the effect or the level left.
The test system of the next assay is Fusarium graminearum. The assay is described as follows: Fungicidal activity against Fusarium graminearum at 50 ug/ml by growth inhibition method. More on the design: scale not given: the % may be the effect or the level left.
Assay [1] relates to Botryosphaeria berengeriana. The assay can be described thus: Fungicidal activity against Botryosphaeria berengeriana at 50 ug/ml by growth inhibition method. More on the design: scale not given: the % may be the effect or the level left.
Another assay relates to Alternaria solani. The assay is described as follows: Fungicidal activity against Alternaria solani at 50 ug/ml by growth inhibition method. More on the design: scale not given: the % may be the effect or the level left.
For another assay, the system named is Mycosphaerella arachidis. The assay can be described thus: Fungicidal activity against Mycosphaerella arachidis at 50 ug/ml by growth inhibition method. More on the design: scale not given: the % may be the effect or the level left.
The next assay concerns Cercospora beticola. The assay can be described thus: Fungicidal activity against Cercospora beticola at 50 ug/ml by growth inhibition method. More on the design: scale not given: the % may be the effect or the level left.
The test system of assay [2] is Nicotiana tabacum. The assay is described as follows: Induction of systemic acquired resistance activity in TMV infected-Nicotiana tabacum (tobacco) leaves at 50 ug/ml.
Assay [3] concerns Nicotiana tabacum. The assay can be described thus: Induction of systemic acquired resistance activity in TMV infected-Nicotiana tabacum (tobacco) leaves at 100 ug/ml.
The subject of assay [4] is Tobacco mosaic virus. The assay can be described thus: In vivo antiviral activity against Tobacco mosaic virus (TMV) infected tobacco leaves assessed as inactivation effect at 100 ug/ml co-treated with virus for 30 min before inoculation onto leaves measured at 2-3 days after viral challenge.
The subject of assay [5] is Tobacco mosaic virus. The assay can be described thus: In vivo antiviral activity against Tobacco mosaic virus (TMV) infected tobacco leaves assessed as inactivation effect at 500 ug/ml co-treated with virus for 30 min before inoculation onto leaves measured at 2-3 days after viral challenge.
The subject of assay [6] is Tobacco mosaic virus. The assay is described as follows: In vivo antiviral activity against Tobacco mosaic virus (TMV) infected tobacco leaves assessed as curative effect at 100 ug/ml treated after viral inoculation measured at 2-3 days after viral challenge.
The test system of assay [7] is Tobacco mosaic virus. The assay is described as follows: In vivo antiviral activity against Tobacco mosaic virus (TMV) infected tobacco leaves assessed as curative effect at 500 ug/ml treated after viral inoculation measured at 2-3 days after viral challenge.
In assay [8] the test system is Tobacco mosaic virus. The assay is described as follows: In vivo antiviral activity against Tobacco mosaic virus (TMV) infected tobacco leaves assessed as protective effect at 100 ug/ml treated 12 hr before viral inoculation measured at 2-3 days after viral challenge.
Assay [9] has as its system Tobacco mosaic virus. The assay is described as follows: In vivo antiviral activity against Tobacco mosaic virus (TMV) infected tobacco leaves assessed as protective effect at 500 ug/ml treated 12 hr before viral inoculation measured at 2-3 days after viral challenge.
In assay [10] the test system is Tobacco mosaic virus. The assay is described as follows: In vitro antiviral activity against Tobacco mosaic virus (TMV) infected tobacco leaves at 100 ug/ml.
In assay [11] the test system is Tobacco mosaic virus. The assay is described as follows: In vitro antiviral activity against Tobacco mosaic virus (TMV) infected tobacco leaves at 500 ug/ml.
The next assay relates to Phytophthora infestans. The assay can be described thus: Fungicidal activity against Phytophthora infestans at 50 ug/ml by growth inhibition method. More on the design: scale not given: the % may be the effect or the level left.
In a further assay the test system is Rhizoctonia solani. The assay is described as follows: Fungicidal activity against Rhizoctonia solani at 50 ug/ml by growth inhibition method. More on the design: scale not given: the % may be the effect or the level left.
For a further assay, the system named is Colletotrichum lagenaria. The assay can be described thus: Fungicidal activity against Colletotrichum lagenaria at 50 ug/ml by growth inhibition method. More on the design: scale not given: the % may be the effect or the level left.

The structures appear in SMILES notation.

Usually inhibition stands for the share of the control response that was lost under treatment. Take `Cc1ccc(N(C(=O)c2snnc2C)C(C(=O)NC2CCCCC2)c2ccccc2C)cc1F` (stereo not given): the Activity in the assay with Pyricularia grisea is recorded as 57%; with Thanatephorus cucumeris it was 16%; in the assay on Fusarium graminearum, 34%; in [1], 53%; in the assay on Alternaria solani, 44%; with Mycosphaerella arachidis, 79%. In addition, the Activity with Cercospora beticola is 67%; with Nicotiana tabacum [2], 63%; in the assay on Nicotiana tabacum [3], 58%; with Tobacco mosaic virus [4], 27%; in the assay with Tobacco mosaic virus [5] it was 60%; in the assay with Tobacco mosaic virus [6], 18%. For the same molecule, the Activity is 47% in the assay on Tobacco mosaic virus [7]; 23% in the assay with Tobacco mosaic virus [8]; 35% with Tobacco mosaic virus [9]; 47% in the assay with Phytophthora infestans; 51% in the assay with Rhizoctonia solani; 43% with Colletotrichum lagenaria. In the assay on Tobacco mosaic virus [10], this molecule yielded an inhibition at 100 µg/mL of 23%. The inhibition at 500 µg/mL in the assay with Tobacco mosaic virus [11] was determined as 52%.
Turning to `Cc1ccc(N(C(=O)c2snnc2C)C(C(=O)NC2CCCCC2)c2cccc(C(F)(F)F)c2)cc1F` (stereo not given), the Activity amounted to 14% in the assay with Pyricularia grisea; 74% in the assay with Thanatephorus cucumeris; 62% in the assay with Fusarium graminearum; 85% in assay [1]; 100% in the assay on Alternaria solani; 71% with Mycosphaerella arachidis. For the same molecule, the Activity came to 0% in the assay with Cercospora beticola; 68% in the assay with Nicotiana tabacum [2]; 38% in the assay on Nicotiana tabacum [3]; 21% in the assay with Tobacco mosaic virus [4]; 31% in the assay with Tobacco mosaic virus [5]; 28% in the assay with Tobacco mosaic virus [6]. For the same molecule, the Activity in the assay with Tobacco mosaic virus [7] turned out to be 42%; in the assay with Tobacco mosaic virus [8] it was 19%; in the assay with Tobacco mosaic virus [9], 54%; in the assay with Phytophthora infestans, 88%; in the assay with Rhizoctonia solani it was 97%; in the assay with Colletotrichum lagenaria, 95%. For the same molecule, the inhibition at 100 µg/mL in the assay with Tobacco mosaic virus [10] amounted to 29%. This molecule also gave an inhibition at 500 µg/mL with Tobacco mosaic virus [11] of 67%.
For `Cc1ccc(N(C(=O)c2snnc2C)C(C(=O)NC2CCCCC2)c2cccc([N+](=O)[O-])c2)cc1F` (stereo not given), the Activity with Pyricularia grisea is 14%; in the assay on Thanatephorus cucumeris, 45%; in the assay on Fusarium graminearum, 28%; in [1], 32%; in the assay with Alternaria solani, 0%; in the assay with Mycosphaerella arachidis it was 57%. Further, the Activity in the assay with Cercospora beticola is 33%; in the assay on Nicotiana tabacum [2], 50%; in the assay on Nicotiana tabacum [3], 68%; in the assay with Tobacco mosaic virus [4], 48%; with Tobacco mosaic virus [5], 62%; in the assay with Tobacco mosaic virus [6], 39%. Besides, the Activity in the assay on Tobacco mosaic virus [7] was 56%; in the assay with Tobacco mosaic virus [8] it was 27%; with Tobacco mosaic virus [9], 55%; in the assay with Phytophthora infestans, 11%; in the assay on Rhizoctonia solani it was 30%; in the assay with Colletotrichum lagenaria it was 10%. For the same molecule, 100 µg/mL produced 44% inhibition in the assay on Tobacco mosaic virus [10]. For the same molecule, 500 µg/mL produced 58% inhibition with Tobacco mosaic virus [11].
`Cc1ccc(N(C(=O)c2snnc2C)C(C(=O)NC2CCCCC2)c2ccc([N+](=O)[O-])cc2)cc1F` (stereo not given): the Activity in the assay with Pyricularia grisea is recorded as 0%; with Thanatephorus cucumeris it was 0%; in the assay on Fusarium graminearum it was 34%; in [1] it was 0%; with Alternaria solani, 0%; in the assay on Mycosphaerella arachidis, 14%. Also, the Activity in the assay with Cercospora beticola is given as 17%; with Nicotiana tabacum [2], 36%; in the assay on Nicotiana tabacum [3] it was 68%; in the assay on Tobacco mosaic virus [4], 48%; with Tobacco mosaic virus [5] it was 57%; in the assay on Tobacco mosaic virus [6] it was 36%. Also, the Activity in the assay on Tobacco mosaic virus [7] stood at 59%; with Tobacco mosaic virus [8] it was 18%; in the assay with Tobacco mosaic virus [9] it was 38%; in the assay with Phytophthora infestans, 16%; in the assay on Rhizoctonia solani, 40%; in the assay on Colletotrichum lagenaria it was 0%. In the assay with Tobacco mosaic virus [10], this molecule came in with an inhibition at 100 µg/mL of 26%. The molecule also showed an inhibition at 500 µg/mL in the assay on Tobacco mosaic virus [11] of 39%.
Consider `Cc1ccc(N(C(=O)c2snnc2C)C(C(=O)NC2CCCCC2)c2ccccc2C(F)(F)F)cc1F` (stereo not given), for which the Activity in the assay on Pyricularia grisea worked out at 29%; in the assay on Thanatephorus cucumeris, 11%; with Fusarium graminearum it was 15%; in assay [1] it was 23%; in the assay with Alternaria solani it was 44%; in the assay on Mycosphaerella arachidis, 29%. For the same molecule, the Activity is 75% in the assay with Cercospora beticola; 57% in the assay with Nicotiana tabacum [2]; 45% in the assay on Nicotiana tabacum [3]; 26% in the assay on Tobacco mosaic virus [4]; 39% in the assay with Tobacco mosaic virus [5]; 13% in the assay on Tobacco mosaic virus [6]. The Activity in the assay on Tobacco mosaic virus [7] was determined as 30%; in the assay on Tobacco mosaic virus [8], 49%; in the assay on Tobacco mosaic virus [9], 51%; in the assay on Phytophthora infestans it was 53%; with Rhizoctonia solani, 37%; in the assay on Colletotrichum lagenaria, 47%. In the assay on Tobacco mosaic virus [10], this molecule yielded an inhibition at 100 µg/mL of 33%. In the assay on Tobacco mosaic virus [11], this molecule registered an inhibition at 500 µg/mL of 48%.
In the case of `Cc1ccc(N(C(=O)c2snnc2C)C(C(=O)NC2CCCCC2)c2ccccc2)cc1F` (stereo not given), the Activity in the assay on Pyricularia grisea was 14%; in the assay on Thanatephorus cucumeris it was 0%; in the assay on Fusarium graminearum, 45%; in assay [1], 0%; in the assay on Alternaria solani it was 0%; in the assay on Mycosphaerella arachidis it was 21%. The Activity is recorded as 33% with Cercospora beticola; 69% in the assay with Nicotiana tabacum [2]; 54% in the assay with Nicotiana tabacum [3]; 11% in the assay with Tobacco mosaic virus [4]; 29% in the assay on Tobacco mosaic virus [5]; 47% in the assay with Tobacco mosaic virus [6]. Also, the Activity with Tobacco mosaic virus [7] is 81%; in the assay on Tobacco mosaic virus [8] it was 41%; with Tobacco mosaic virus [9], 49%; in the assay with Phytophthora infestans it was 5%; with Rhizoctonia solani it was 28%; with Colletotrichum lagenaria it was 14%. The molecule also gave an inhibition at 100 µg/mL with Tobacco mosaic virus [10] of 19%. Further, the inhibition at 500 µg/mL in the assay with Tobacco mosaic virus [11] worked out at 19%.
`Cc1ccc(N(C(=O)c2snnc2C)C(C(=O)NC2CCCCC2)c2ccc(O)cc2)cc1F` (stereo not given): the Activity with Pyricularia grisea stood at 14%; in the assay with Thanatephorus cucumeris, 14%; in the assay with Fusarium graminearum it was 24%; in assay [1], 0%; in the assay with Alternaria solani, 0%; in the assay with Mycosphaerella arachidis, 36%. For the same molecule, the Activity is 17% with Cercospora beticola; 44% with Nicotiana tabacum [2]; 65% with Nicotiana tabacum [3]; 65% with Tobacco mosaic virus [4]; 68% with Tobacco mosaic virus [5]; 34% in the assay on Tobacco mosaic virus [6]. The Activity in the assay with Tobacco mosaic virus [7] amounted to 43%; with Tobacco mosaic virus [8] it was 40%; in the assay with Tobacco mosaic virus [9], 55%; in the assay with Phytophthora infestans it was 0%; with Rhizoctonia solani, 40%; with Colletotrichum lagenaria, 5%. The same molecule gave an inhibition at 100 µg/mL in the assay with Tobacco mosaic virus [10] of 20%. Also, the inhibition at 500 µg/mL with Tobacco mosaic virus [11] was 70%.
